Reference: patent US10517889B2, “Modulators of SMAD7 expression” (Ionis Pharmaceuticals, Inc., priority 2017, dated 2019)
Strand notation (5' to 3'): a small letter for the sugar, then the base; units joined by * are phosphorothioate-linked, units joined directly phosphodiester-linked; [ ] holds rarer units or linkages, { } end groups; capitals alone tell only the bases. e = 2'-O-(2-methoxyethyl) (MOE); [5mC] = 5-methylcytosine; d = 2'-deoxy (DNA)

Tested on: human SMAD7 mRNA
Test: Antisense inhibition of human SMAD7 mRNA expression in Hep3B cells by 5-10-5 MOE gapmers, single concentration, electroporation, RT-PCR (Example 1, Study 1 and 2)
Format: cell-based
Conditions: for % Inhibition: Study 2, electroporation with 15,000 nM antisense oligonucleotide; for % Inhibition of SMAD7 mRNA: electroporation with 15,000 nM antisense oligonucleotide (Study 2)
Method in brief: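 Readout is percent SMAD7 mRNA inhibition versus untreated cells, measured by qRT-PCR (RTS5062) and corrected for total RNA by RIBOGREEN. Oligonucleotide, 5,000 nM or 15,000 nM, was delivered by electroporation into Hep3B cells at 20,000 per well. RNA was collected about 24 h later.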

[1] = 5-10-5 MOE gapmers targeting SEQ ID NO: 1 and 2
[2] = electroporation, 15,000 nM antisense oligonucleotide (Study 2), 5-10-5 MOE gapmers targeting SEQ ID NO: 1 and 2
[3] = electroporation, 5,000 nM, approximately 24 hours, relative to untreated control cells, gapmers targeting SEQ ID NO: 1 and 2
[4] = electroporation, 15,000 nM, approximately 24 hours, relative to untreated control cells, gapmers targeting SEQ ID NO: 1 and 2

## 771791 (antisense eG*eA*eG*eG*eA*dG*dG*dG*dA*dG*dA*dA*dA*d[5mC]*dT*e[5mC]*e[5mC]*eT*e[5mC]*eA) [compound 771791]
[1]
  % Inhibition: 22%

## 771792 (antisense eA*eG*e[5mC]*eA*e[5mC]*dA*d[5mC]*d[5mC]*d[5mC]*d[5mC]*dA*d[5mC]*d[5mC]*d[5mC]*d[5mC]*e[5mC]*eA*e[5mC]*e[5mC]*eT) [compound 771792]
[1]
  % Inhibition of SMAD7 mRNA: 33%
[2]
  % inhibition of SMAD7 mRNA expression: 2%

## 771796 (antisense eG*eT*eT*eT*eG*d[5mC]*dG*d[5mC]*dA*d[5mC]*dG*dG*dG*dA*dT*eT*eG*eT*e[5mC]*eT) [compound 771796]
[1]
  % Inhibition: 16%

## 771798 (antisense eG*eA*e[5mC]*eA*e[5mC]*dA*dT*d[5mC]*d[5mC]*dA*dT*dG*dT*d[5mC]*d[5mC]*eA*eA*eG*e[5mC]*eA) [compound 771798]
[1]
  % Inhibition: 17%

## 771800 (antisense eG*eA*e[5mC]*eA*eG*d[5mC]*dA*dG*dA*d[5mC]*dA*dG*dG*d[5mC]*dA*eA*eA*eA*eT*eG) [compound 771800]
[1]
  % Inhibition of SMAD7 mRNA: 32%
[2]
  % inhibition of SMAD7 mRNA expression: 12%

## 771801 (antisense eA*e[5mC]*e[5mC]*eT*eA*d[5mC]*dA*dA*d[5mC]*dT*d[5mC]*dA*d[5mC]*dA*dA*eG*eG*eG*eA*eG) [compound 771801]
[2]
  % inhibition of SMAD7 mRNA expression: 31%

## 771802 (antisense e[5mC]*e[5mC]*eT*eT*eG*dA*dG*dA*dT*d[5mC]*d[5mC]*dA*dT*dG*dG*eG*eA*eG*e[5mC]*eA) [compound 771802]
[2]
  % inhibition of SMAD7 mRNA expression: 40%

## 771803 (antisense eA*eT*eG*eG*eA*dT*dA*d[5mC]*dT*dG*dA*d[5mC]*dT*d[5mC]*dA*eA*eG*eG*eA*e[5mC]) [compound 771803]
[1]
  % Inhibition: 39%
[3]
  % inhibition of SMAD7 mRNA expression: 22%

## 771804 (antisense eG*eA*e[5mC]*eA*eG*dA*dT*dG*d[5mC]*d[5mC]*dA*dG*d[5mC]*dA*dA*eG*eG*eA*eT*e[5mC]) [compound 771804]
[1]
  % Inhibition: 17%

## 771805 (antisense eG*eA*eT*eT*eA*dT*dA*dT*dA*dG*dG*dT*dA*dT*dT*eT*eT*eT*eG*eA) [compound 771805]
[4]
  % inhibition of SMAD7 mRNA expression: 0%

## 771806 (antisense eA*e[5mC]*eA*eA*eT*dG*dA*dA*dT*dA*dA*dT*dT*dG*dT*eT*e[5mC]*eA*e[5mC]*eG) [compound 771806]
[1]
  % Inhibition: 0%

## 771807 (antisense eG*e[5mC]*e[5mC]*e[5mC]*eT*d[5mC]*dA*d[5mC]*dT*d[5mC]*d[5mC]*dA*d[5mC]*dA*dA*eT*eG*eG*e[5mC]*eA) [compound 771807]
[1]
  % Inhibition: 51%

## 771809 (antisense eA*e[5mC]*e[5mC]*eT*eG*dA*dG*dT*d[5mC]*d[5mC]*d[5mC]*d[5mC]*d[5mC]*dA*dA*eA*eG*eT*e[5mC]*e[5mC]) [compound 771809]
[2]
  % inhibition of SMAD7 mRNA expression: 7%

## 771810 (antisense eG*eG*e[5mC]*eA*e[5mC]*dT*dG*d[5mC]*dA*dG*dA*dA*dG*dA*dG*eG*e[5mC]*eG*eG*eG) [compound 771810]
[2]
  % inhibition of SMAD7 mRNA expression: 46%

## 771811 (antisense eT*eG*e[5mC]*e[5mC]*eT*d[5mC]*dA*dT*dT*d[5mC]*dT*dT*dT*d[5mC]*d[5mC]*eA*eG*eG*eA*e[5mC]) [compound 771811]
[1]
  % Inhibition: 50%
[3]
  % inhibition of SMAD7 mRNA expression: 48%

## 771812 (antisense eT*eT*eA*eA*e[5mC]*d[5mC]*d[5mC]*d[5mC]*dT*dG*d[5mC]*d[5mC]*dG*dG*dA*e[5mC]*eT*eG*e[5mC]*e[5mC]) [compound 771812]
[1]
  % Inhibition: 26%

## 771813 (antisense eT*e[5mC]*eT*eT*eG*dT*d[5mC]*dT*dG*dG*d[5mC]*d[5mC]*dG*dG*d[5mC]*eA*eG*eA*eG*e[5mC]) [compound 771813]
[4]
  % inhibition of SMAD7 mRNA expression: 38%

## 771814 (antisense eT*e[5mC]*e[5mC]*e[5mC]*eT*dT*dT*dG*d[5mC]*dT*dG*dG*d[5mC]*d[5mC]*d[5mC]*eA*eG*eT*eT*e[5mC]) [compound 771814]
[1]
  % Inhibition: 39%

## 771816 (antisense eA*eT*e[5mC]*e[5mC]*eA*dA*d[5mC]*dT*dA*d[5mC]*dT*d[5mC]*dA*dG*dA*eG*eG*e[5mC]*eT*eG) [compound 771816]
[1]
  % Inhibition of SMAD7 mRNA: 28%
[2]
  % inhibition of SMAD7 mRNA expression: 27%

## 771817 (antisense eG*eG*eA*eA*eT*dT*dA*dT*dG*dA*d[5mC]*dA*d[5mC]*dA*dG*eT*eA*eA*e[5mC]*eA) [compound 771817]
[2]
  % inhibition of SMAD7 mRNA expression: 19%

## 771818 (antisense eT*eG*eA*eA*eG*dA*d[5mC]*dA*dA*d[5mC]*dT*dG*d[5mC]*dT*dT*eT*eG*eA*eG*eA) [compound 771818]
[2]
  % inhibition of SMAD7 mRNA expression: 38%

## 771819 (antisense eA*eA*eT*eA*eG*dT*dT*dT*dT*d[5mC]*dT*d[5mC]*dT*d[5mC]*dA*eA*eA*eT*eG*eT) [compound 771819]
[1]
  % Inhibition: 20%
[3]
  % inhibition of SMAD7 mRNA expression: 56%

## 771823 (antisense e[5mC]*eT*eT*e[5mC]*e[5mC]*d[5mC]*dA*dT*dG*dT*dG*dA*d[5mC]*d[5mC]*dT*e[5mC]*eA*eG*eG*eG) [compound 771823]
[1]
  % Inhibition: 49%

## 771824 (antisense eT*eT*e[5mC]*eT*eA*d[5mC]*dT*dA*dG*dA*dA*dA*dA*dA*dA*eA*eT*eT*eA*eG) [compound 771824]
[1]
  % Inhibition of SMAD7 mRNA: 3%
[2]
  % inhibition of SMAD7 mRNA expression: 0%

## 771826 (antisense e[5mC]*eA*e[5mC]*e[5mC]*eA*dT*d[5mC]*d[5mC]*dT*dG*dG*dT*dT*d[5mC]*dG*e[5mC]*eA*eG*eT*e[5mC]) [compound 771826]
[2]
  % inhibition of SMAD7 mRNA expression: 31%

## 771827 (antisense eA*eA*eG*eG*eA*d[5mC]*dA*dT*d[5mC]*dA*d[5mC]*dA*dG*dG*dG*eA*e[5mC]*eT*eG*eG) [compound 771827]
[1]
  % Inhibition: 33%
[3]
  % inhibition of SMAD7 mRNA expression: 31%

## 771828 (antisense eG*e[5mC]*e[5mC]*e[5mC]*eT*dA*dG*dA*dA*d[5mC]*dT*dT*dG*dG*dG*e[5mC]*eA*eA*eG*eG) [compound 771828]
[1]
  % Inhibition: 8%

## 771829 (antisense eT*eG*eT*eG*e[5mC]*d[5mC]*dT*d[5mC]*dA*dG*d[5mC]*dA*dG*dT*dT*eA*eA*eT*eA*eA) [compound 771829]
[4]
  % inhibition of SMAD7 mRNA expression: 14%

## 771830 (antisense eT*eT*eT*eA*eG*dG*dT*dA*dG*dA*dG*dT*dG*dG*d[5mC]*e[5mC]*eG*eG*eG*eA) [compound 771830]
[1]
  % Inhibition: 40%

## 771832 (antisense eA*e[5mC]*e[5mC]*eT*eT*dT*d[5mC]*dA*d[5mC]*dG*dA*dA*d[5mC]*d[5mC]*dA*e[5mC]*eT*eT*eT*eT) [compound 771832]
[1]
  % Inhibition of SMAD7 mRNA: 31%
[2]
  % inhibition of SMAD7 mRNA expression: 11%

## 771833 (antisense eT*eT*eA*eA*eA*dG*dA*dA*dA*dA*dT*dG*dG*d[5mC]*d[5mC]*eT*eA*e[5mC]*eA*eT) [compound 771833]
[2]
  % inhibition of SMAD7 mRNA expression: 21%

## 771834 (antisense eA*eA*e[5mC]*eA*eT*dA*dA*dA*dG*dT*dT*d[5mC]*dT*d[5mC]*dA*eA*eA*e[5mC]*eA*eG) [compound 771834]
[2]
  % inhibition of SMAD7 mRNA expression: 25%

## 771835 (antisense eA*eG*eT*eA*eA*dA*dA*dT*dG*dG*dG*dA*dA*dA*dT*eA*eA*eG*eG*e[5mC]) [compound 771835]
[1]
  % Inhibition: 5%
[3]
  % inhibition of SMAD7 mRNA expression: 17%

## 771837 (antisense eA*eG*eT*eG*eT*dT*dG*dA*dG*dG*dA*d[5mC]*dT*d[5mC]*d[5mC]*e[5mC]*e[5mC]*eA*eG*e[5mC]) [compound 771837]
[4]
  % inhibition of SMAD7 mRNA expression: 48%

## 771839 (antisense e[5mC]*eA*e[5mC]*eA*eG*d[5mC]*dA*d[5mC]*d[5mC]*dG*dT*dT*dA*d[5mC]*dT*eG*eG*eA*e[5mC]*eA) [compound 771839]
[1]
  % Inhibition: 21%

## 771840 (antisense eA*eG*eA*eT*eG*d[5mC]*dT*dT*d[5mC]*dT*dA*dG*dG*dT*dG*eA*eA*e[5mC]*e[5mC]*eA) [compound 771840]
[1]
  % Inhibition of SMAD7 mRNA: 30%
[2]
  % inhibition of SMAD7 mRNA expression: 16%

## 771841 (antisense eT*eT*eT*eA*eG*dA*dA*dA*d[5mC]*d[5mC]*d[5mC]*dA*dG*dA*dG*eA*e[5mC]*eA*eA*eA) [compound 771841]
[2]
  % inhibition of SMAD7 mRNA expression: 36%

## 771842 (antisense eT*eT*eG*eT*eG*dT*dT*dA*dT*dG*dA*dA*dA*dA*d[5mC]*eA*eA*eA*eA*e[5mC]) [compound 771842]
[2]
  % inhibition of SMAD7 mRNA expression: 6%

## 771843 (antisense e[5mC]*eG*e[5mC]*e[5mC]*eG*dG*d[5mC]*d[5mC]*d[5mC]*dA*d[5mC]*d[5mC]*dA*dA*d[5mC]*e[5mC]*eT*e[5mC]*eT*eG) [compound 771843]
[1]
  % Inhibition: 17%
[3]
  % inhibition of SMAD7 mRNA expression: 19%

## 771844 (antisense eG*eA*eA*eG*eG*dA*d[5mC]*d[5mC]*dA*dA*dG*dT*d[5mC]*d[5mC]*d[5mC]*eT*e[5mC]*eT*e[5mC]*e[5mC]) [compound 771844]
[1]
  % Inhibition: 0%

## 771845 (antisense eT*eT*e[5mC]*e[5mC]*eA*dA*dG*d[5mC]*dA*d[5mC]*dG*dG*dA*dG*dT*e[5mC]*eA*eG*e[5mC]*e[5mC]) [compound 771845]
[4]
  % inhibition of SMAD7 mRNA expression: 39%

## 771846 (antisense e[5mC]*eA*eT*eA*eT*dT*dT*dG*d[5mC]*dT*d[5mC]*d[5mC]*dA*dT*dA*eA*eA*e[5mC]*eA*eA) [compound 771846]
[1]
  % Inhibition: 5%

## 771847 (antisense e[5mC]*eA*eT*e[5mC]*eA*d[5mC]*d[5mC]*dT*dT*d[5mC]*dG*dG*dA*d[5mC]*dA*eA*eG*e[5mC]*e[5mC]*eA) [compound 771847]
[1]
  % Inhibition: 53%
